Experimental data reported in PubChem BioAssay (NCI).
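In this assay, cells in 96-well plates receive the compound at five concentrations for 48 hours. Endpoints are linearly interpolated between the surrounding concentrations. TGI: total growth inhibition.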

Assays:
Test in all cases: NCI anticancer screen, dose series, 48 h
786-0 renal = system: 786-0 renal
A549 NSCLC = system: A549 NSCLC
HS 578T breast = system: HS 578T breast
LOX IMVI melanoma = system: LOX IMVI melanoma
MOLT-4 leukemia = system: MOLT-4 leukemia
NCI-H23 lung = system: NCI-H23 lung
RPMI-8226 leukemia = system: RPMI-8226 leukemia
SF-295 CNS = system: SF-295 CNS
SF-539 CNS = system: SF-539 CNS
SW-620 colon = system: SW-620 colon
UACC-257 melanoma = system: UACC-257 melanoma

Structure (SMILES)	TGI (786-0 renal) [µM]	TGI (A549 NSCLC) [µM]	TGI (HS 578T breast) [µM]	TGI (LOX IMVI melanoma) [µM]	TGI (MOLT-4 leukemia) [µM]	TGI (NCI-H23 lung) [µM]	TGI (RPMI-8226 leukemia) [µM]	TGI (SF-295 CNS) [µM]	TGI (SF-539 CNS) [µM]	TGI (SW-620 colon) [µM]	TGI (UACC-257 melanoma) [µM]
Cc1nc(N)c(N2CCN(S(=O)(=O)N(Cc3ccccc3)Cc3ccccc3)CC2)c(=O)[nH]1	> 100	> 100	69.8	> 100	> 100	47.8	> 100	65.8	80.6	> 100	61.5
Cc1cnc2c(c1)C(=O)N(c1ccc(Oc3ccccc3)cc1)S2(=O)=O	> 100	> 100	> 100	> 100	> 100	> 100	> 100	> 100	> 100	> 100	> 100
N=C1C=CC(=C(c2ccc(N)cc2)c2ccc(N)cc2)C=C1	12.9	32.1	8.18	15.4	42.1	16.3	18.4	21.4	13.1	19.2	18.1
